Measurements reported in patent US5413915A (priority 1991, dated 1995).
Marks after values point to notes of the source that are not given here.

Assays:
Salmonella typhimurium = settings: cited from earlier work
[1] = in vivo; cited from earlier work
[2] = in vivo; cited from earlier work; remark: listed apart in the source
rat liver microsomes = assay type: biochemical; design: unit not given here

| Compound | Mutagenicity (Salmonella typhimurium) | Tumorigen Activity [1] | Teratogen Activity [2] | Detector Response, threshold dose (rat liver microsomes) | Tumorigen Activity, assignment based on NCI/NTP carcinogenesis bioassay results [1] |
| --- | --- | --- | --- | --- | --- |
| ClCCCl [1,2-Dichloroethane] | + | + | - | 20 |  |
| C1COCCO1 [1,4-Dioxane] | - |  | - | 10 | + |
| Oc1ccccc1Cl [2-Chlorophenol] | - | + | - | < 1 |  |
| Oc1ccc2ccccc2c1 [2-Naphthol] |  | - | - | 20 |  |
| NC(N)=S [2-Thiourea] | + | + | + | 7 |  |
| Oc1cccc(Cl)c1 [3-Chlorophenol] | - | + | - | < 1 |  |
| Oc1ccc(Cl)cc1 [4-Chlorophenol] | + | + | - | < 1 |  |
| Oc1cccc2cccnc12 [8-Hydroxyquinoline] | + | + | - | 0.3 |  |
| CC(C)=O [Acetone] | - | - | - | > 50 |  |
| C=CC(N)=O [Acrylamide] |  | + | - | 0.2 |  |
| C=CC#N [Acrylonitrile] | + | + | + | 20 |  |
| O=C1c2ccccc2C(=O)c2ccccc21 [Anthraquinone] | - | - | - | 1-20 |  |
| CCNc1nc(Cl)nc(NC(C)C)n1 [Atrazine (ind.), Atrazine] | - | +^e | - | 0.05 |  |
| Cc1cc(C(C)(C)C)c(O)c(C(C)(C)C)c1 [BHT] | - | +/- | - | 200 |  |
| [Ba+2] [Barium(II)] | - | - | - | 20-100 |  |
| [Ca+2] [Calcium(II)] | - | +/- | - | 10 |  |
| CCOP(=S)(OCC)Oc1nc(Cl)c(Cl)cc1Cl [Chlorpyrifos (ind.), Chlorpyrifos] | - | - | + | 0.01 |  |
| N#CN [Cyanamid] | + | +^e | - | 30 |  |
| C[C@H](CCC(=O)O)[C@H]1CC[C@H]2[C@@H]3CC[C@@H]4C[C@H](O)CC[C@]4(C)[C@H]3C[C@H](O)[C@]12C [Deoxycholate] | - | - | + | 0.5 |  |
| CCOP(=S)(OCC)Oc1cc(C)nc(C(C)C)n1 [Diazinon (ind.), Diazinon] | - | - | + | 1-100 |  |

| Compound | Mutagenicity (Salmonella typhimurium) | Tumorigen Activity [1] | Teratogen Activity [2] | Detector Response, threshold dose (rat liver microsomes) | Tumorigen Activity, assignment based on NCI/NTP carcinogenesis bioassay results [1] |
| --- | --- | --- | --- | --- | --- |
| CCN(CC)C(=S)S [Diethyldithiocarbamic acid] | - | +^t | + | 0.2 | - |
| CCN(CC)N=O [Diethylnitrosamine] | + | + | + | 0.1-1 |  |
| c1ccc(Nc2ccccc2)cc1 [Diphenylamine] | - | - | + | 100 |  |
| [Dy+3] [Dysprosium(III)] | - | - | - | 5 |  |
| O=S1OCC2C(CO1)C1(Cl)C(Cl)=C(Cl)C2(Cl)C1(Cl)Cl (stereo not shown) [Endosulfan (ind.), Endosulfan] | - | +^b | + | 0.1 | - |
| CCOC(=O)c1ccc(O)cc1 [Ethyl p-Hydroxybenzoate] | - | - | + | 30 |  |
| NC=O [Formamide] | - | - | + | 100 |  |
| NC(=O)CI [Iodoacetamide] |  | + | - | 0.1 |  |
| O=S(=O)(O)CCCN1CCOCC1 [MOPS Buffer, morpholinopropanesulfonic acid] | -? | -? | -? |  |  |
| OC[C@@H](O)[C@@H](O)[C@H](O)[C@H](O)CO [Mannitol] | - | - | - |  |  |
| CO [Methanol] | - | - | + |  |  |
| CNC(=O)ON=C(C)SC [Methomyl (ind.), Methomyl] | - | - | - |  |  |
| C[n+]1ccc(-c2cc[n+](C)cc2)cc1 [Methyl viologen] | + | + | + |  |  |
| CCc1cccc(C)c1N(C(=O)CCl)C(C)COC (stereo not shown) [Metolachlor (ind.), Metolachlor] | + | - | - |  |  |
| CNC(=O)Oc1cc(C)c(N(C)C)c(C)c1 [Mexacarbate (ind.), Mexacarbate] | - | +^b | - |  | - |
| [Cl-].[Na+] [NaCl] | - | - | - |  |  |
| O=C(O)CN(CC(=O)O)CC(=O)O [Nitrilotriacetate] | - | + | + |  |  |
| O=[O+][O-] [Ozone] | - | +^b | + |  |  |
| C[n+]1ccc(-c2cc[n+](C)cc2)cc1 [Paraquat (ind.), Paraquat] | + | - | + |  |  |
| O=C(O)COc1ccccc1 [Phenoxyacetate] | - | - | - |  |  |

| Compound | Mutagenicity (Salmonella typhimurium) | Tumorigen Activity [1] | Teratogen Activity [2] | Detector Response, threshold dose (rat liver microsomes) | Tumorigen Activity, assignment based on NCI/NTP carcinogenesis bioassay results [1] |
| --- | --- | --- | --- | --- | --- |
| O=S(=O)(F)Cc1ccccc1 [Phenylmethylsulfonyl fluoride] | - | - | - |  |  |
| CNC(=O)Oc1ccccc1OC(C)C [Propoxur (ind.), Propoxur] | - | - | - |  |  |
| CCNc1nc(Cl)nc(NCC)n1 [Simazine (ind.), Simazine] | - | +^e | + |  |  |
| CCCCCCCCCCCCOS(=O)(=O)[O-].[Na+] [Sodium laurylsulfate] | - | - | - |  |  |
| CC(C)C(C(=O)OC(C#N)c1cccc(Oc2ccccc2)c1)c1ccc(Cl)cc1 (stereo not shown) [Sumicidin (ind.), Sumicidin] |  | -? | -? | 0.5 |  |
| NC(CO)(CO)CO [TRIS Buffer, tris(hydroxymethyl-)aminomethane] | - | - | - |  |  |
| ClC(Cl)=C(Cl)Cl [Tetrachloroethylene] | + | + | + |  |  |
| O=S(=O)(c1ccc(Cl)cc1)c1cc(Cl)c(Cl)cc1Cl [Tetradifon (ind.), Tetradifon] | - | - | - |  |  |
| Cc1cc(-c2cc(C)c(N)c(C)c2)cc(C)c1N [Tetramethylbenzidine] | - | - | - |  |  |
| CCN(CC)CC [Triethylamine] | - | - | - |  |  |
| NC(N)=O [Urea] | - | + | - |  |  |
| CCCCCC [n-Hexane] | - | - | - |  |  |
| c1cnc2c(c1)ccc1cccnc12 [o-Phenanthroline] | - | - | - |  |  |
| Oc1ccc(-c2ccccc2)cc1 [p-Hydroxybiphenyl] | - | + | -? |  |  |
| Cyanacrylate [Cyanacrylate (ind.)] | - | - | - |  |  |
| Lecithin [Lecithin, fresh] | - | - | - |  |  |
| Lecithin [Lecithin, oxidized] | + | + | - |  |  |
| Magnesium(II) | - | - | - |  |  |
| Triton X-100 | - | - | - |  |  |
